PubChem BioAssay (NCI)
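Five compound concentrations were applied to cells in 96-well plates for 48 hours; endpoints were derived by simple linear interpolation of the resulting dose-response curve. GI50 is the concentration that inhibits growth by half. TGI marks complete inhibition of growth.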

What was measured:
Test in all cases: inhibition of tumour cell growth, NCI panel, 48 h
[1] = system: TK-10 renal
[2] = system: OVCAR-5 ovarian
[3] = system: SK-MEL-5 melanoma
[4] = system: IGROV1 ovarian
[5] = system: OVCAR-8 ovarian
[6] = system: NCI-H23 lung
[7] = system: RXF 393 renal
[8] = system: SK-MEL-2 melanoma
[9] = system: MDA-MB-231 breast
[10] = system: T-47D breast

Structure (SMILES) | GI50 [1] [µM] | TGI [1] [µM] | GI50 [2] [µM] | TGI [2] [µM] | GI50 [3] [µM] | TGI [3] [µM] | GI50 [4] [µM] | TGI [4] [µM] | GI50 [5] [µM] | TGI [5] [µM] | GI50 [6] [µM] | TGI [6] [µM] | GI50 [7] [µM] | TGI [7] [µM] | GI50 [8] [µM] | TGI [8] [µM] | GI50 [9] [µM] | GI50 [10] [µM] | TGI [9] [µM]
CCC[CH2][Sn]([CH2]CCC)([O]C(=O)/C=C/c1ccccc1F)[O]C(=O)/C=C/c1ccccc1F | 0.898 | 2.03 | 1.5 | 2.83 | 0.985 | 2.31 | 0.585 | 1.66 | 0.98 | 2.2 | 0.198 | 0.56 | 0.256 | 0.95 | 0.324 | 1.19 | – | – | –
O=C(O)[C@@H](NS(=O)(=O)c1ccc2ccccc2c1)c1ccccc1 | – | – | – | > 100 | – | – | – | > 100 | – | – | – | > 100 | – | > 100 | – | > 100 | – | – | –
Nc1cc2cccc[n+]2c2cccc(Cl)c12 | 94.7 | – | – | – | 4.94 | 17.8 | 69.9 | – | 24.1 | – | 14.3 | 65.6 | – | – | 10.7 | 28.1 | 17 | 9.86 | –
N.N.N.N.N.O=S(=O)([O-])C(F)(F)F.O=S(=O)([O-])C(F)(F)F.[Os+8] | 33 | 95.4 | 15.4 | 31.9 | 15 | 34.1 | 21.3 | 64.1 | 13.5 | 86.7 | 5.07 | 19.1 | 5.37 | 18.7 | 11.7 | 24.7 | – | – | –
COC/N=C(/N)NC#N | – | > 100 | – | > 100 | – | > 100 | – | > 100 | – | > 100 | – | > 100 | – | > 100 | – | > 100 | – | – | –
Nc1ccc(C(=O)N/C(=C\c2cccc([N+](=O)[O-])c2)c2nc3ccc(Cl)cc3[nH]2)cc1 | – | > 100 | – | > 100 | – | > 100 | – | > 100 | – | > 100 | – | > 100 | – | > 100 | – | > 100 | – | – | –
CCSc1nc(N)c(C#N)c(-c2ccco2)c1C#N | 21.3 | 78.1 | > 100 | > 100 | 33.3 | > 100 | 36.8 | > 100 | 53.6 | > 100 | 53.2 | > 100 | 56.4 | > 100 | > 100 | > 100 | > 100 | – | > 100
COc1ccc(Cc2nc3ccccc3s2)cc1OC | – | 84.7 | – | 37.6 | – | 30.1 | – | 35.7 | – | 30.9 | – | 40.4 | – | 34.7 | – | 42.6 | – | – | –
Cc1nc2c(sc(=S)n2-c2ccccc2)c2nc3ccccc3n12 | – | > 100 | – | > 100 | – | – | – | > 100 | – | > 100 | – | > 100 | – | > 100 | – | > 100 | – | – | –
CC(=O)[CH-]C(=O)Nc1ccccc1.CC(=O)[CH-]C(=O)Nc1ccccc1.CC[O-].CC[O-].[Ti+4] | > 100 | > 100 | > 100 | > 100 | > 100 | > 100 | > 100 | > 100 | > 100 | > 100 | > 100 | > 100 | > 100 | > 100 | > 100 | > 100 | – | – | –
